Test results as given in patent US20240101546A1, “HETEROARYL-ACETYLENES, PHARMACEUTICAL COMPOSITIONS THEREOF, AND THEIR THERAPEUTIC APPLICATIONS” (Eubulus Biotherapeutics Inc., priority 2020, published 2024).

system: lung cancer cell line NCI-H82; assay: Cell proliferation assay, NCI-H82 (CELL-TITER GLO); format: cell-based; details: Homo sapiens, NCI-H82, 72 h, NCI-H82 cells, 72 h incubation, cell viability by CELL-TITER GLO, top concentration 1 μM; read-out: EC50, Inhibition of NCl-H82 Cell Proliferation
Description: The activity of a compound was determined in a cell proliferation assay using the lung cancer cell line NCI-H82. Cells (1,000 cells per well) were cultured with RPMI1640 in a 384-well tissue culture plate. After incubated overnight, the compound was added at predetermined concentrations, starting with 1 μM and followed by a 3-fold serial dilution. After the cells were incubated for 72 h, cell viability was determined using a CELL-TITER GLO assay. The CELL-TITER GLO reagent (25 μL) was added to each well and the luminescence was measured by a multimode microplate reader after a brief period of shaking. EC50 values were determined for the compound. The results are summarized in Table 1, wherein A represents a value no greater than 200 nM, B represents a value greater than 200 nM but no greater than 1 μM, C represents a value greater than 1 μM but no greater than […], and D represents a value greater than 5 μM.

| Compound | EC50 [nM] |
| --- | --- |
| C#Cc1nc(NC(=O)N[C@@H](C)c2ccc(-c3cccc4ncsc34)cc2)cs1 [Compound A25, (S)-1-(1-(4-(Benzo[d]thiazol-7-yl)phenyl)ethyl)-3-(2-ethynylthiazol-4-yl)urea] | ≤ 200 |
| C#Cc1nc(NC(=O)N[C@H](C)c2ccc(-c3cccc4ncsc34)cc2)cs1 [Compound A26, (R)-1-(1-(4-(Benzo[d]thiazol-7-yl)phenyl)ethyl)-3-(2-ethynylthiazol-4-yl)urea] | 200 to 1000 |
| C#Cc1nc(NC(=O)NCC(=O)N2CC(c3ccccc3C#N)C2)cs1 [Compound A34, 1-(2-(3-(2-Cyanophenyl)azetidin-1-yl)-2-oxoethyl)-3-(2-ethynylthiazol-4-yl)urea] | 200 to 1000 |
| C#Cc1nc(NC(=O)NCC(=O)N2CCC(c3ccccc3C#N)CC2)cs1 [Compound A35, 1-(2-(4-(2-Cyanophenyl)piperidin-1-yl)-2-oxoethyl)-3-(2-ethynylthiazol-4-yl)urea] | 200 to 1000 |
| C#Cc1nc(NC(=O)NCC(=O)N2CCN(c3ccccc3C#N)CC2)cs1 [Compound A36, 1-(2-(4-(2-Cyanophenyl)piperazin-1-yl)-2-oxoethyl)-3-(2-ethynylthiazol-4-yl)urea] | ≤ 200 |
| C#Cc1nc(NC(=O)NCC2CCN(c3ccccc3C#N)CC2)cs1 [Compound A37, 1-((1-(2-Cyanophenyl)piperidin-4-yl)methyl)-3-(2-ethynylthiazol-4-yl)urea] | ≤ 200 |
| C#Cc1nc(NC(=O)NCC23CC4CC(CC(C4)C2)C3)cs1 [Compound A38, 1-(Adamantan-1-ylmethyl)-3-(2-ethynylthiazol-4-yl)urea] | ≤ 200 |
| C#Cc1nc(NC(=O)N[C@@H](CO)c2ccc(-c3cccc4ncsc34)cc2)cs1 [Compound A40, (R)-1-(1-(4-(Benzo[d]thiazol-7-yl)phenyl)-2-hydroxyethyl)-3-(2-ethynylthiazol-4-yl)urea] | ≤ 200 |
| C#Cc1nc(NC(=O)N[C@H](CO)c2ccc(-c3cccc4ncsc34)cc2)cs1 [Compound A41, (S)-1-(1-(4-(Benzo[d]thiazol-7-yl)phenyl)-2-hydroxyethyl)-3-(2-ethynylthiazol-4-yl)urea] | ≤ 200 |
| C#Cc1nc(NC(=O)N[C@@H](C(=O)NC)c2ccc(-c3cccnc3C3(C#N)CC3)cc2)cs1 [Compound A43, (R)-2-(4-(2-(1-Cyanocyclopropyl)pyridin-3-yl)phenyl)-2-(3-(2-ethynylthiazol-4-yl)ureido)-N-methylacetamide] | ≤ 200 |
| C#Cc1nc(NC(=O)N[C@@H](CO)c2ccc(-c3ccccc3C#N)cc2)cs1 [Compound A44, (R)-1-(1-(2′-Cyano-[1,1′-biphenyl]-4-yl)-2-hydroxyethyl)-3-(2-ethynylthiazol-4-yl)urea] | ≤ 200 |

Continued, values first:

| EC50 [nM] | Compound |
| --- | --- |
| ≤ 200 | C#Cc1nc(NC(=O)NCc2ccc(-c3ccccc3C#N)cc2)cs1 [Compound A29, 1-((2′-Cyano-[1,1′-biphenyl]-4-yl)methyl)-3-(2-ethynylthiazol-4-yl)urea] |
| ≤ 200 | C#Cc1nc(NC(=O)NCc2ccc(N3CCCC3)cc2)cs1 [Compound A30, 1-(2-Ethynylthiazol-4-yl)-3-(4-(pyrrolidin-1-yl)benzyl)urea] |
| 200 to 1000 | C#Cc1nc(NC(=O)NCc2ccc(N3CCCC3C(N)=O)cc2)cs1 (centres unmarked) [Compound A31, 1-(4-((3-(2-Ethynylthiazol-4-yl)ureido)methyl)phenyl)pyrrolidine-2-carboxamide] |
| ≤ 200 | C#Cc1nc(NC(=O)NCc2ccc(N3CCC[C@H]3C#N)cc2)cs1 [Compound A32, (S)-1-(4-(2-Cyanopyrrolidin-1-yl)benzyl)-3-(2-ethynylthiazol-4-yl)urea] |
| ≤ 200 | C#Cc1nc(NC(=O)NCc2ccc(N3CCC[C@@H]3C#N)cc2)cs1 [Compound A33, (R)-1-(4-(2-Cyanopyrrolidin-1-yl)benzyl)-3-(2-ethynylthiazol-4-yl)urea] |
| ≤ 200 | C#Cc1nc(NC(=O)N[C@@H](CO)c2ccc(-c3cccc(N4CCCC4)c3)cc2)cs1 [Compound A42, (R)-1-(2-Ethynylthiazol-4-yl)-3-(2-hydroxy-1-(3′-(pyrrolidin-1-yl)-[1,1′-biphenyl]-4-yl)ethyl)urea] |
